In patent US20170291890A1 (Epizyme, Inc., priority 2014, published 2017):
Where two headings read alike, the source gives them in different places.

Assays:
KDM4A = biological target: T1, KDM4A (Homo sapiens, UniProt O75164); experiment: KDM4A Assay (SAMDI mass spectrometry demethylase assay); format: biochemical; conditions: N-terminal His-tagged KDM4A 1-350, read-out: 4A IC50
T1 construct: N-terminal His-tagged KDM4A^1-350 was purchased from BPS Biosciences; His (N); purchased BPS Biosciences
T1 sequence (O75164 1-350): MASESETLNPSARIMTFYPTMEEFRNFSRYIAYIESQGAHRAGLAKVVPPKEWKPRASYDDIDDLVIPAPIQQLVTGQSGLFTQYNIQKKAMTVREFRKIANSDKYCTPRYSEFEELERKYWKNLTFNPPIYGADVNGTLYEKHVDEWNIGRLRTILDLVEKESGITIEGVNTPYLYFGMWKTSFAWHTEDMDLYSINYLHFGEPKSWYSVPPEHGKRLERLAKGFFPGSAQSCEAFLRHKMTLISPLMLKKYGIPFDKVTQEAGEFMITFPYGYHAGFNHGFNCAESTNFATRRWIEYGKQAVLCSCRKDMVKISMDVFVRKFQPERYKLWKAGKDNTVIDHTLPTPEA
In short: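 His-tagged KDM4A 1-350 (5 nM final) was preincubated 30 min with compound (10 μM final for screening) in 50 mM HEPES pH 8.0 with ascorbate, 10 μM Fe(II) and TCEP. Biotinylated Kme2 peptide (600 nM) and 2-oxoglutarate (5 μM) reacted 120 min at 25°C before a formic acid stop. SAMDI-MS % conversion from substrate and product peak areas; IC50 from dose-response.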

KDM4C = biological target: T2, KDM4C (Homo sapiens, UniProt Q9H3R0); experiment: KDM4C Assay (SAMDI mass spectrometry demethylase assay); format: biochemical; conditions: N-terminal GST-tagged KDM4C 2-372, read-out: 4C IC50
T2 construct: N-terminal GST-tagged KDM4C^2-372 was purchased from BPS Biosciences; GST (N); purchased BPS Biosciences
T2 sequence (Q9H3R0 2-372): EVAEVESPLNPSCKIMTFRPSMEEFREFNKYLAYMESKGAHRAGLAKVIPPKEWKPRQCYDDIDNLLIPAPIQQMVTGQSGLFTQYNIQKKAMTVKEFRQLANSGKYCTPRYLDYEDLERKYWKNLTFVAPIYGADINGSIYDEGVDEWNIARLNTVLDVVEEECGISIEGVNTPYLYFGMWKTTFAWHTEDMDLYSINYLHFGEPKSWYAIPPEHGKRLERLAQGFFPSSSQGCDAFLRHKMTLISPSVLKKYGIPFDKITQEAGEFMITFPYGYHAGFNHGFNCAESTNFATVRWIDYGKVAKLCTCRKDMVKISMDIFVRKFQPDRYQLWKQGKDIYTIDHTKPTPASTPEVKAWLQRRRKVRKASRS
In short: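 GST-tagged KDM4C 2-372 (5 nM) preincubated 30 min with compound, then H3K9me3 biotinylated peptide (500 nM) and 2-oxoglutarate (15 μM) added in HEPES pH 8.0 with ascorbate, Fe(II), TCEP; 150 min at 25 °C, formic-acid quench. Conversion by SAMDI mass spectrometry from substrate/product peak AUC; IC50 from dose-response.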

SMILES | IC50 (KDM4A; class symbols) | IC50 (KDM4C; class symbols) | IC50 (KDM4A; numeric value) | IC50 (KDM4C; numeric bound)
Cc1nn(C2CCN(C3CN(C)C3)CC2)cc1Nc1cnccc1C(=O)O [Compound 91, 3-(3-methyl-1-(1-(1-methylazetidin-3-yl)piperidin-4-yl)-1H-pyrazol-4-ylamino)isonicotinic acid] | 0.1 to 1 µM | 1 to 10 µM | – | –
Cn1ncc(-c2cccnc2)c1Nc1cnccc1C(=O)O [Compound 4] | 1 to 10 µM | 1 to 10 µM | – | –
NC1CCC(n2nc(Nc3cnccc3C(=O)O)cc2-c2cccc(Cl)c2)CC1 (stereo not shown) [Compound 87, 3-((1-(4-aminocyclohexyl)-5-(3-chlorophenyl)-1H-pyrazol-3-yl)amino)isonicotinic acid] | 10 to 100 µM | 10 to 100 µM | – | –
Cc1nn(C2CCN(C3CCC3)CC2)cc1Nc1cnccc1C(=O)O [Compound 94, 3-(1-(1-cyclobutylpiperidin-4-yl)-3-methyl-1H-pyrazol-4-ylamino)isonicotinic acid] | 0.001 to 0.1 µM | 0.1 to 1 µM | – | –
CN1CCC(n2ncc(Nc3cnccc3C(=O)O)c2-c2ccccc2)CC1 [Compound 126, 3-(1-(1-methylpiperidin-4-yl)-5-phenyl-1H-pyrazol-4-ylamino) isonicotinic acid] | – | 1 to 10 µM | 1.49 µM | –
CCc1c(Nc2cnccc2C(=O)O)cnn1-c1ccccc1 [Compound 81, 3-((5-ethyl-1-phenyl-1H-pyrazol-4-yl)amino)isonicotinic acid] | 0.001 to 0.1 µM | 0.001 to 0.1 µM | – | –
Cc1nn([C@H]2CC[C@@H](N)CC2)cc1Nc1cnccc1C(=O)O [Compound 80, 3-((1-((cis)-4-aminocyclohexyl)-3-methyl-1H-pyrazol-4-yl)amino)isonicotinic acid] | 0.1 to 1 µM | 0.1 to 1 µM | – | –
COC(=O)c1ccncc1Nc1cnn(C2CCN(C3CCC3)CC2)c1C [Compound 95, methyl 3-((1-(1-cyclobutylpiperidin-4-yl)-5-methyl-1H-pyrazol-4-yl)amino)isonicotinate] | 10 to 100 µM | 10 to 100 µM | – | –
Cc1ccc(-n2cc(Nc3cnccc3C(=O)O)c(C)n2)cc1 [Compound 82] | 0.001 to 0.1 µM | 0.001 to 0.1 µM | – | –
Cc1nn(C2CCN(CC3CC3)CC2)cc1Nc1cnccc1C(=O)O [Compound 89, 3-(1-(1-(cyclopropylmethyl)piperidin-4-yl)-3-methyl-1H-pyrazol-4-ylamino)isonicotinic acid] | 0.001 to 0.1 µM | 0.1 to 1 µM | – | –

Next, values leading:

IC50 (KDM4A; class symbols) | IC50 (KDM4C; class symbols) | IC50 (KDM4A; numeric value) | IC50 (KDM4C; numeric bound) | SMILES
0.1 to 1 µM | 1 to 10 µM | – | – | O=C(O)c1ccncc1Nc1cc(-c2cccc(Cl)c2)n(C2CCC3(CC2)OCCO3)n1 [Compound 86, 3-((5-(3-chlorophenyl)-1-(1,4-dioxaspiro[4.5]decan-8-yl)-1H-pyrazol-3-yl)amino)isonicotinic acid]
0.1 to 1 µM | 0.1 to 1 µM | – | – | Cn1nc(Nc2cnccc2C(=O)O)cc1-c1ccccc1 [Compound 5]
0.1 to 1 µM | 0.1 to 1 µM | – | – | Cc1c(Nc2cnccc2C(=O)O)cnn1C1CCN(CC2CC2)CC1 [Compound 90, 3-(1-(1-(cyclopropylmethyl)piperidin-4-yl)-5-methyl-1H-pyrazol-4-ylamino) isonicotinic acid]
0.1 to 1 µM | 0.001 to 0.1 µM | – | – | O=C(O)c1ccncc1Nc1nn(-c2ccccc2)cc1-c1ccncc1 [Compound 88, 3-((1-phenyl-4-(pyridin-4-yl)-1H-pyrazol-3-yl)amino) isonicotinic acid]
0.1 to 1 µM | 0.1 to 1 µM | – | – | Cc1c(Nc2cnccc2C(=O)O)cnn1C1CCN(C2CN(C)C2)CC1 [Compound 92, 3-(5-methyl-1-(1-(1-methylazetidin-3-yl)piperidin-4-yl)-1H-pyrazol-4-ylamino)isonicotinic acid]
1 to 10 µM | 1 to 10 µM | – | – | NC1CCC(n2nc(-c3cccc(Cl)c3)cc2Nc2cnccc2C(=O)O)CC1 (stereo not shown) [Compound 85, 3-((1-(4-aminocyclohexyl)-3-(3-chlorophenyl)-1H-pyrazol-5-yl)amino)isonicotinic acid]
10 to 100 µM | – | – | > 100 µM | COC(=O)c1ccncc1Nc1cn(C2CCN(C3CCC3)CC2)nc1C [Compound 93, methyl 3-((1-(1-cyclobutylpiperidin-4-yl)-3-methyl-1H-pyrazol-4-yl)amino)isonicotinate]
